Laboratory results taken from US20160101093A1, “METHODS FOR THE TREATMENT OF PREMATURE EJACULATION” (priority 2013, published 2016).

How the values were obtained:
[1] = test system: patient with lifelong premature ejaculation; test: Patient self-injection of bupivacaine at home, subcutaneous, dorsal penis (contemplated Examples 1 and 2); format: in vivo, human; settings: dorsally within 1 cm proximal to the glans, self-injected
Experimental: “Prolongation of climax time” means an increase in time (increase in climax baseline time) from which a patient becomes sexually aroused to the time of sexual climax (i.e. orgasm). This is commonly measured as the ‘intravaginal latency time’ and is measured by stopwatch held and activated by the female partner commencing with insertion of male organ into the female, ending at climax of the male. In one aspect, “treating premature ejaculation” means increasing the time between the beginning of sexual arousal of a patient and ejaculation by the patient; and in particular instances, it can mean increasing the time from which sexual intercourse begins to the time of ejaculation. It is contemplated by the present invention, that a patient with lifelong premature ejaculation and relationship stress proceeds to contact their physician. The physician prescribes a teaching injection of 0.2 mL bupivacaine. The administration of bupivacaine is made dorsally just before the glans, e.g., within 1 cm proximal to the glans. The injection is made subcutaneously to the left or right of midline. The injection anesthetizes the dorsal penile nerve. A 30-32 gauge needle is used, and the need is 10 mm or less (e.g., between 4-10 mm, e.g., 4 mm). […] In one aspect the patient sees an improvement in prolonging climax from 45 seconds (prior to treatment) to 4 minutes (following treatment). It is contemplated by the present invention, that a patient with lifelong premature ejaculation and relationship stress proceeds to contact their physician. The physician prescribes a teaching injection of 0.4 mL bupivacaine. The administration of bupivacaine is made dorsally just before the glans, e.g., within 1 cm proximal to the glans. The injection is made subcutaneously to the left or right of midline. The injection anesthetizes the dorsal penile nerve. A 30-32 gauge needle is used, and the need is 7 mm or less (between 4-7 mm). […] In one aspect the patient sees an improvement in prolonging climax from 45 seconds (prior to treatment) to 4 minutes (following treatment).

[2] = test system: patient with premature ejaculation; test: Randomized blinded study of clinician-administered bupivacaine injection, IELT and PEP recorded (Example 4); format: in vivo, human; settings: 0.25% bupivacaine
Experimental: A patient with premature ejaculation is 18 years or old and in a monogamous heterosexual relationship for 6 months. A screening/baseline run-in phase will request at least 4 measurements of IELT over a 4-6 week period. For each sexual episode, partner will record PEP, IELT, date and time of sexual encounter; patient will fill out PEP. To qualify for the treatment phase, patients must have a measured IELT of 2 minutes or less in 75% of valuable events. A volume of distribution of 0.4 and 0.8 mL will bathe the dorsal penile nerves as they are located just to the right and left of midline. Diffusion should occur across the midline given that the subcutaneous compartment has a low resistance to fluid migration. Diffusion of the drug solution should occur through Buck's fascia to the dorsal penile nerves. A concentration of bupivacaine (0.25%) is used for local nerve blocks. Doses of administration are of 1 mg of bupivacaine for the 0.4 mL volume and 2 mg for the 0.8 mL group. This is less than 1.5% of the maximum permitted dose. […] Patients will be randomized to one of 4 treatment groups. […] Subsequently, patient will be evaluated for eligibility for “treatment phase”—must have either: (1) IELT of 2 minutes or less in at least 75% or sexual episodes; or (2) IELT of 3 minutes or less in at least 75% of sexual episodes with PEP score indicating accompanying psychosocial or relationship distress. […]

`CCCCN1CCCCC1C(=O)Nc1c(C)cccc1C` (centres unmarked) [bupivacaine] was tested, and the “climax time following treatment (45 seconds prior to treatment)” value (shortened to “climax time following treatment”) ([1]; 0.2 mL bupivacaine) was 4 min, the “intravaginal latency time increase” value ([1]; 0.2 mL bupivacaine) was “increases more than two-fold” and the “side-effect profile compared to previous therapies” value ([1]; 0.2 mL bupivacaine) was “better side-effect profile compared to previous therapies”. For the same compound, the “climax time following treatment” value ([1]; 0.4 mL bupivacaine) was 4 min, the “intravaginal latency time increase” value ([1]; 0.4 mL bupivacaine) was “increases more than two-fold” and the “side-effect profile compared to previous therapies” value ([1]; 0.4 mL bupivacaine) was “better side-effect profile compared to previous therapies”. For the same compound, the adverse dose-related effects ([2]; 1 mg (0.4 mL) or 2 mg (0.8 mL)) was “not anticipated” and the “climax time following treatment” value ([2]; treatment groups, 1 mg in 0.4 mL or 2 mg in 0.8 mL, clinician-injected) was 4 min.
